Values quoted from earlier work as cited in patent publication US20050287587A1, “Production of glycosylated macrolides in E. coli” (The Board of Trustees of the Leland Stanford Junior …, priority 2002, published 2005).

Settings: general background statement, no strain or method given

Compound: CC[C@H]1OC(=O)[C@H](C)[C@@H](O)[C@H](C)[C@@H](O)[C@@H](C)C[C@@H](C)C(=O)[C@H](C)[C@@H](O)[C@H]1C [6-deoxyerythronolide B]
- antibacterial activity: no antibacterial activity
